Source: PMC5650142, “GPR40 partial agonists and AgoPAMs: Differentiating effects on glucose and hormonal secretions in the rodent” (PLoS ONE, 2017)
Where “and” joins values, the source holds several entries; their conditions need not be identical. Equal entries are not always repeated.

Columns and labels:
[1] = test system: GK rats; assay: 13C-labeled glucose tolerance test (tissue 13C-glycogen); format: in vivo; settings: GK rat, 13C-GTT after sub-chronic treatment; vs MK-8666 or vehicle
Experimental: On day 0, GK rats were selected and sorted into treatment groups based on ambient glucose measured via glucometer at 1 h post lights on. MK-8666 at 30 mg/kg was administered in feed (Research Diets) and provided ad lib on day 0. On days 1–6, rats were dosed via oral gavage (PO) at a volume of 5 ml/kg daily at approximately 12:30 PM with either vehicle (0.5% methylcellulose) or AP1 at 10 mg/kg. Rats from the MK-8666 group were administered vehicle PO at this time. On day 7, ambient glucose was measured 1 hr post lights on and food was removed. After approximately 5 hrs fasting, glucose was measured at time = - 60 min, followed by PO administration of vehicle or AP1. […] Blood glucose was then measured at t = 20, 40, 60, 120 minutes post challenge. […]
Glycogen is a primary site of glucose disposal in both liver and muscle; however glycogen was not preserved in our tissue extraction protocol. To quantify tissue 13C-glycogen, a separate piece of tissue from each sample was analyzed. […] The resulting glycogen-derived glucose solution was analyzed for total glucose using a glucose oxidase / horseradish peroxidase assay kit and fluorescence-based product detection according to the manufacturers’ instructions (BioVision Glycogen Assay Kit, Milpitas, CA).

[2] = test system: GK rats; assay: Endogenous glucose production in vivo (2H/13C dual tracer); set-up: species or system rat;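 as to Glucose production, EGP Total: micromoles per kg body weight per minute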;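 as to Glucose production, Glycerol: absolute flux in micromoles per kg per minute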;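 as to Glucose production, Glycogen: absolute flux in micromoles per kg per minute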;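 as to Glucose production, TCA: absolute flux in micromoles per kg per minute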
Experimental: To evaluate the effects of the GPR40 partial and AgoPAM compounds on EGP in vivo, a 2H/13C dual tracer approach was used to calculate EGP and its contributing sources. Following the chronic treatments described above, 0.9% NaCl salinated deuterium oxide (D2O, Sigma-Aldrich, St. Louis, MO) was administered to all animals via intraperitoneal (IP) injection at dose volume of 20 ml/kg at 1 hr post lights on. Animals were then placed in clean cages and food was removed. After a 5 hour fast, blood glucose was measured and animals were dosed with 50 mg/kg [U-13C] glucose (Sigma-Aldrich, St. Louis, MO) IP at 5 ml/kg. Blood was collected via tail snip at time points from 60–150 min post treatment to measure blood glucose (via glucometer) as well as endogenous (12C-glucose) and exogenous (13C-glucose) via GCMS. Following the last tail blood collection, rats were anesthetized with isoflurane and cardiac blood was collected into K2EDTA tubes (Becton, Dickinson and Co., Franklin Lakes, NJ).
The serially collected blood samples were analyzed for 13C-glucose enrichment using GC-MS analysis. The % 13C glucose enrichments were then combined with the total glucose readings to calculate the concentration of 13C-glucose, and these values were modeled with a two-compartment model of whole body glucose metabolism to calculate the average EGP for the period from 0–150 minutes.
Terminal blood samples were analyzed for relative 2H enrichment in plasma glucose using the monoacetone glucose method. Briefly, samples were extracted with 70% perchloric acid at a ratio of 50 μl perchloric acid per 1 ml plasma and centrifuged at 25,000 rcf for 10 min at 4°C. The supernatant was collected and the pH was adjusted to 6–8 using aqueous KOH. The samples were then lyophilized overnight. To convert plasma glucose to monoacetone glucose (MAG), acetone and concentrated sulfuric acid were added to the lyophilized samples and stirred for 4 hours at room temperature. Water was then added and the pH adjusted to 2.0 with 3M Na2CO3. Samples were stirred moderately for 18 hours at room temperature, the pH was adjusted to 7 with 3M Na2CO3, and the samples were completely dried by speed vacuum concentration. The resulting MAG samples were then extracted in hot ethyl acetate, dried overnight under a stream of N2 gas, and purified using Discovery DSC-18 SPE columns (6 ml, 1 g bed weight). For the SPE protocol, MAG samples were reconstituted in 3 ml water and passed over the columns which were pre-washed with 2 ml methanol. The columns were rinsed twice with 1 ml water and the MAG was eluted with 5% acetonitrile. The acetonitrile eluent was then transferred to a glass scintillation vial and freeze dried. Purified MAG samples were solubilized in 180 μl 90% acetonitrile for 2H NMR analysis which was performed using the lock channel of a 950 MHz Bruker NMR spectrometer (David H Murdock Research Institute, DHMRI Kannapolis, NC). Acquisition parameters were as follows: 90° pulse, D1 = 1 s, 1H broadband decoupling, NS = 3600, acquisition time ~ 1 hr. The 2H NMR spectra of the MAG samples were then analyzed using Matlab (The Mathworks Inc, Natick, MA) to model the NMR peaks with a Lorentzian lineshape, and the results were used to calculate integrals for each of the seven NMR resonances in the MAG spectrum. Peaks 2, 5, and 6s were then used to calculate the relative sources of EGP (i.e. gluconeogenesis from TCA cycle substrates, glucose production from triose phosphates, and glycogenolysis) and these values were combined with the total EGP measurement to calculate absolute fluxes of glucose production.

[3] = GK rats, 30 mpk, individual animal values (data for Fig 8), 30 mg/kg

SMILES | skeletal muscle 13C-glycogen levels [1] | endogenous glucose production (EGP) ([2]; GK rat, following chronic treatment) | Glucose production, EGP Total [2, 3] | Glucose production, Glycerol [2, 3] | Glucose production, Glycogen [2, 3] | Glucose production, TCA [2, 3]
COc1ccc(F)c(-c2ccc([C@@H]3CCc4ccc([C@H](C5CC5)[C@H](C)C(=O)O)cc4O3)cc2)c1 [AP1] | increased | – | – | – | – | –
Cc1cc(OCCCS(C)(=O)=O)cc(C)c1-c1cccc(COc2cc3c(cn2)[C@H]2[C@@H](C3)[C@@H]2C(=O)O)c1 [MK-8666] | – | reduced | 47.3366 µmol/kg/min and 49.7015 µmol/kg/min and 23.1675 µmol/kg/min and 46.5921 µmol/kg/min and 49.3944 µmol/kg/min and 59.3105 µmol/kg/min and 53.4963 µmol/kg/min | 8.397 µmol/kg/min and 6.008 µmol/kg/min and 2.752 µmol/kg/min and 6.734 µmol/kg/min and 8.91 µmol/kg/min and 9 µmol/kg/min and 9.76 µmol/kg/min | 15.2782 µmol/kg/min and 19.9182 µmol/kg/min and 7.082 µmol/kg/min and 20.1227 µmol/kg/min and 18.1009 µmol/kg/min and 21.3139 µmol/kg/min and 17.6544 µmol/kg/min | 23.6618 µmol/kg/min and 23.7752 µmol/kg/min and 13.3332 µmol/kg/min and 19.7357 µmol/kg/min and 22.3838 µmol/kg/min and 28.9962 µmol/kg/min and 26.0816 µmol/kg/min
